Test results published in ChEMBL document CHEMBL1201862, “PubChem BioAssay data set” (2004).
“And” between values parts separate entries of the source, which are not always exact repeats. Equal values may be shown once.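 A five-concentration, 48-hour dose response in 96-well plates underlies each endpoint, interpolated linearly between surrounding concentrations. Here, GI50 denotes the concentration required for 50% inhibition of growth.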 The source made the active and inactive calls. Rule as the data show it: active = GI50 up to about 1.1 µM and inactive = higher. Where a SMILES comes first, the peptide text is derived from it. [ ]: non-standard residue; d: D form. The star is where a group is joined. Iva = CC[C](C)(N)C(=O)O; Boc = CC(C)(C)OC(=O)*; X54 = C1CCC(=NO*)C1

What was measured:
Assay in all cases: inhibition of tumour cell growth, NCI panel, 48 h
[1] = test system: BT-549
[2] = test system: CCRF-CEM
[3] = test system: Hs-578T
[4] = test system: MDA-MB-231
[5] = test system: NCI-H460
[6] = test system: NCI-H522
[7] = test system: OVCAR-8
[8] = test system: RXF 393
[9] = test system: SK-MEL-2
[10] = test system: SR
[11] = test system: T47D
[12] = test system: U-251
[13] = test system: HCC 2998
[14] = test system: RPMI-8226
[15] = test system: HT-29

Measured: GI50

CC(Oc1ccc(Oc2cnc3ccc(Cl)cc3n2)cc1)C(=O)O (configuration not stated)
inactive: [1] > 80.2 µM | [2] > 74.1 µM | [3] > 88.1 µM | [4] > 100 µM | [5] 60.4 µM and 19.6 µM | [6] 32.7 µM | [7] > 82.4 µM | [8] > 100 µM | [9] > 100 µM | [10] > 44.5 µM | [11] 92 µM and 64.4 µM | [12] > 94.6 µM

CCC(C)(NC(=O)C(C)NC(=O)OC(C)(C)C)C(=O)NC(C)C(=O)NC(C)(CC)C(=O)ON=C1CCCC1 (configuration not stated) (Boc-A[Iva]A[Iva]-X54; configuration not given here)
inactive: [1] > 100 µM | [2] > 100 µM | [13] > 100 µM | [3] > 100 µM | [4] > 100 µM | [5] > 100 µM | [6] > 100 µM | [7] > 100 µM | [14] > 100 µM | [8] 16.7 µM | [9] > 100 µM | [10] > 100 µM | [11] > 100 µM | [12] > 100 µM

COc1ncnc2c(Cl)c(C(O)c3ccccc3)c(Cl)cc12 (configuration not stated)
inactive: [1] 20.6 µM | [15] 30.1 µM | [3] 19.6 µM | [4] 18.6 µM | [5] 30.8 µM | [6] 31.3 µM | [7] 30.5 µM | [14] 18.7 µM | [8] 15.5 µM | [9] 33.6 µM | [10] 3.5 µM | [11] 40.1 µM | [12] 27.3 µM

OC(c1ccc(Br)cc1)(c1cccs1)C1CC1 (configuration not stated)
inactive: [1] 24.4 µM | [2] 26.2 µM | [13] 23.6 µM | [15] 23.4 µM | [3] 22.3 µM | [4] 18.3 µM | [5] 22.4 µM | [6] 18.5 µM | [7] 24.4 µM | [14] 21.6 µM | [8] 18.6 µM | [9] 20.4 µM | [11] 22.8 µM | [12] 17.8 µM

O=C1CCC[C@]2(CCC[C@@H](O)C2)N1
inactive: [1] > 100 µM | [2] > 100 µM | [13] > 100 µM | [15] > 100 µM | [3] > 100 µM | [4] > 100 µM | [5] > 100 µM | [6] > 100 µM | [7] > 100 µM | [8] > 100 µM | [9] > 100 µM | [11] > 100 µM

COc1cc(C(O)(CC#N)c2cc3c(cc2Br)OCO3)cc(OC)c1OC (configuration not stated)
inactive: [1] > 100 µM | [2] 43.2 µM | [13] 24 µM | [15] 25.4 µM | [4] 21.4 µM | [5] 18.8 µM | [7] 44.9 µM | [14] 50.7 µM | [8] 17.2 µM | [9] 47 µM | [11] > 100 µM | [12] 28.6 µM
